Common to all, as to assay: NCI anticancer screen, dose series, 48 h
The test system of assay [1] is EKVX NSCLC.
Assay [2] has as its system NCI-H460 lung.
Assay [3] relates to OVCAR-4 ovarian.
The test system of assay [4] is HCC-2998 colon.
Assay [5] relates to K-562 leukemia.
The test system of assay [6] is 786-0 renal.
Assay [7] concerns SK-OV-3 ovarian.
The subject of assay [8] is RPMI-8226 leukemia.
Assay [9] concerns OVCAR-5 ovarian.
The subject of assay [10] is CAKI-1 renal.

The structures appear in SMILES notation.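 A five-concentration, 48-hour dose response in 96-well plates underlies each endpoint, interpolated linearly between surrounding concentrations. Abbreviation: GI50, concentration required for 50% inhibition of growth. TGI: concentration producing complete growth inhibition.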 Some results are limits rather than exact numbers.

For the compound `NS(=O)(=O)c1cccc(Nc2cc(-c3ccc(F)cc3)[nH]n2)c1`, the GI50 is above 25 µM in [1]; 13.8 µM in [2]; above 22 µM in assay [3]; above 25 µM in [4]; above 25 µM in assay [5]; 23.2 µM in assay [6]. The GI50 in [7] was 13.2 µM; in assay [8], above 25 µM; in assay [9], above 25 µM; in assay [10], 12.4 µM. Moreover, the TGI in assay [1], in assay [2], in assay [3], in assay [4], in [5] and in assay [6] was above 25 µM in each case. For the same compound, the TGI in assay [7], in [8], in [9] and in assay [10] was above 25 µM in each case.
As to `CCN(CC)c1ccc(N=Nc2ccc(-c3nc4cccnc4s3)cc2)cc1`, the TGI in assay [1], in [2], in assay [3], in [4], in [5] and in assay [6] was above 100 µM throughout. The TGI in [7], in assay [8], in [9] and in [10] was above 100 µM in each case.
For `Nc1ncc(CN2CCCC2)c(-c2ccccc2O)n1`, the TGI in assay [2], in [3], in assay [4], in assay [6], in [7] and in assay [8] was above 750 µM throughout. Besides, the TGI in assay [9] and in assay [10] was above 750 µM in each case. The GI50 in assay [5] is above 750 µM.
Take `CO[C@H]1C[C@H](O[C@H]2CC[C@@]3(C)[C@H](CC[C@@H]4[C@@H]3CC[C@]3(C)[C@@H](C5=CC(=O)OC5)CC[C@]43O)C2)O[C@H](C)[C@H]1O`: the TGI is 0.0148 µM in assay [1]; 0.0103 µM in assay [2]; below 0.0131 µM in [3]; 0.118 µM in assay [4]; below 0.0129 µM in [6]; 0.0291 µM in [7]. In addition, the TGI turned out to be 0.0427 µM in [8], 0.0896 µM in assay [9] and 0.0284 µM in assay [10].
In the case of `COc1cc2c3c(c4ccc(O)cc4c2cc1OC)[C@@H](O)[C@@H]1CCCN1C3`, the TGI in [1] was 0.00625 µM; in assay [2], 0.0155 µM; in assay [3] it was 0.00239 µM; in [4], 0.002 µM; in assay [6], 0.0257 µM; in assay [8] it was 0.00384 µM. For the same compound, the TGI in assay [9] came out at 0.0454 µM; in [10] it was 0.00285 µM.
Consider `COC1=CC(=O)C2(C=C1OC)OC[C@H]1Oc3c(ccc4c3C=CC(C)(C)O4)C(=O)[C@H]12` (some centres undefined), for which the TGI in assay [1], in assay [2], in assay [4], in assay [5], in [6] and in [7] was above 100 µM each time. For the same compound, the TGI was 49.3 µM in assay [8] and above 100 µM in assay [9].
With `CC(=O)OC1(C(C)=O)CC2(c3ccccc3)OC1(c1ccccc1)c1ccccc12` (centres undefined), the TGI was above 100 µM in assay [1]; above 100 µM in assay [2]; above 100 µM in assay [4]; above 100 µM in assay [6]; above 100 µM in assay [7]; 96.8 µM in assay [8]. This compound also gave a TGI in [9] above 100 µM.
`O=C1c2c(c3c4ccccc4n(CC4CO4)c3c3[nH]c4ccccc4c23)C(=O)N1Cc1ccccc1` (centres undefined): the TGI in assay [2], in [3], in [4], in assay [5], in assay [6] and in assay [7] was above 100 µM each time. Further, the TGI in assay [8], in [9] and in assay [10] was above 100 µM each time.
Regarding `O=C1c2ccc3c4c(ccc(c24)C(=O)N1CCCCO)C(=O)N(CCCCO)C3=O`, the GI50 is 1.12 µM in [2]; 0.428 µM in assay [3]; 1.91 µM in assay [4]; 2.54 µM in assay [5]; 2.91 µM in assay [6]; 4.14 µM in assay [7]. Also, the GI50 in [8] is 2.79 µM; in [9] it was 1.57 µM; in assay [10], 2.27 µM. Further, the TGI is 4.75 µM in assay [2]; 1.72 µM in assay [3]; 10.5 µM in [4]; above 100 µM in assay [5]; 20.5 µM in assay [6]; 17.8 µM in assay [7]. Besides, the TGI in [8] was 14.3 µM; in [9] it was 4.06 µM; in [10], 13.6 µM.
On to `COc1cc(O)c(C(=O)C2Cc3ccccc32)c(OC)c1` (centres undefined), for which the TGI in [2], in assay [3], in assay [4], in assay [5], in assay [6] and in [7] was above 100 µM in each case. The TGI was 47.4 µM in [8], above 100 µM in assay [9] and 72.4 µM in assay [10].
Take `CC(=O)OC1COC(N2C(=O)C(=O)c3ccccc32)C(OC(C)=O)C1OC(C)=O` (centres undefined): the TGI in [1], in [2], in assay [3], in [4], in [5] and in [6] was above 100 µM throughout. The TGI in [7], in assay [8] and in [10] was above 100 µM each time.
As for `CSCSCC(CO)NC(=O)/C=C/c1c(C)[nH]c(=O)[nH]c1=O` (centres undefined), the TGI in [1], in assay [2], in [3], in assay [4], in assay [5] and in [6] was above 100 µM in each case. Further, the TGI in [8], in assay [9] and in assay [10] was above 100 µM in each case.
In the case of `O=C(CC(C(=O)c1ccsc1)c1cccs1)c1cccs1` (centres undefined), the TGI in [1], in [2], in assay [3], in assay [4], in assay [5] and in assay [6] was above 100 µM in each case. Moreover, the TGI in [7], in assay [8] and in [9] was above 100 µM each time.

The record behind these values is PubChem BioAssay (NCI).
